From patent US10100010B1, “4-methoxy pyrrole derivatives or salts thereof and pharmaceutical composition comprising the same” (Daewoong Pharmaceutical Co., Ltd., priority 2015, dated 2018)

Experiments:
[1] = system: indomethacin-induced gastric damage in rats; experiment: Gastric damage inhibitory activity against indomethacin-induced gastric damage in rats; format: in vivo, Sprague Dawley (SD) rats; conditions: 2.0 mg/kg oral, 1 hour before indomethacin 80 mg/kg
Method: The inhibitory activity against the gastric damage of the compounds prepared in Examples 2 and 8 was measured using indomethacin model (Chiou., Et al., 2005, gastroenterology, 128, p 63-73). Male Sprague Dawley (SD) rats (body weight 180-220 g) was divided into 5 groups (n=10) and fasted for 24 hours with free access to water. Control group was orally administered with 5 mL/kg of 0.5% methyl cellulose (MC) aqueous solution, and the other groups were orally administered with test compounds suspended in 0.5% methyl cellulose (MC) aqueous solution at a dose of 2.0 mg/kg/5 ml. For comparison, the compound of Example 134 (Comparative Example 1) and the compound of Example 165 (Comparative Example 2) in International Patent Publication No. WO 2006/036024 were orally administered at a dose of 2.0 mg/kg/5 ml by suspending 0.5% methylcellulose (MC) aqueous solution, respectively. […] The incised stomach was placed on a fixture, fixed by a fixing pin while spreading out using a forcep and then the gastric damage area was measured. % Inhibitory activity of test compounds was calculated according to the following Equation 2, and the results are shown in Table 3. % Inhibitory activity of test compound=[1−(gastric damage area % of the group treated with test compounds)/(gastric damage area % of control group)]×100 [Equation 2]

[2] = system: H. pylori; experiment: Antimicrobial activity against H. pylori, MIC by agar dilution method; format: cell-based; conditions: Helicobacter pylori
[3] = target: T1, M1 (Homo sapiens, UniProt P11229); experiment: GPCR Calcium Flux assay (FLIPR tetra, Eurofins), M1; format: cell-based
T1 sequence (P11229 1-460): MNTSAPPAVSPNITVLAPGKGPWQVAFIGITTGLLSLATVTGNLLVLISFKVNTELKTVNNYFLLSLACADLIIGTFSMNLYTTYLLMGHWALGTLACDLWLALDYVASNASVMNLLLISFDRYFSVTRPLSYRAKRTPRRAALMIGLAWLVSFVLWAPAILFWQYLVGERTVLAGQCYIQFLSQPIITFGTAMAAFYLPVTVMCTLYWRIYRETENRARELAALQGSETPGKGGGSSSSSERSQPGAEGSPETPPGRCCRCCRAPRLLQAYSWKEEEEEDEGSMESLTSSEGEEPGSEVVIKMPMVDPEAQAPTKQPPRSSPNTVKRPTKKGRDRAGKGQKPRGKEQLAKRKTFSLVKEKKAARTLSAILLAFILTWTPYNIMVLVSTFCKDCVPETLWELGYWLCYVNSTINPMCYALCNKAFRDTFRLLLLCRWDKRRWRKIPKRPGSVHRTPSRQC
Method: In order to confirm whether the compounds prepared in the above Examples act as an agonist or antagonist against GPCR Target, Calcium Flux assay was performed in an assay plate in which the compounds prepared in the Examples, vehicle controls, and reference compounds were added, using a Fluorometric imaging plate reader (FLIPR tetra) equipment.
Calcium Flux assay was evaluated by entrusting the GPCR profiler assay in Safety panel assays with Eurofins. By using the Fluo-8AM calcium dye, excitation was measured at a wavelength in the range of 470 to 495 nm and Emission was measured at a wavelength in the range of 515-575 nm. GPCR Assay Buffer for Calcium Flux assay was prepared by adding 20 mM of HEPES and 2.5 mM of Probenecid to Hanks Balanced Salt Solution (HBSS) to have pH 7.4. The Compounds of Examples for evaluation of the GPCR were diluted with DMSO at a concentration of 10 mM to make a stock and then prepared by diluting in the GPCR Assay Buffer at the concentration equivalent to three times the final concentration. First, for the evaluation of GPCRs, the inhibitory activity of the compounds of the Examples was evaluated at a single concentration of 10 uM, and then the respective selected targets were four fold-diluted from 10 uM to the low side to calculate 50% inhibitory concentration (IC50), prepared at the total 8 concentrations of 10, 2.5, 0.62, 0.15, 0.04, 0.01, 0.0024, 0.0006 uM, and Calcium Flux assay for GPCR was conducted. In order to evaluate the agonist and antagonist, % inhibition rate against GPCR activity before and after treatment of the compounds and the inhibitory activity of the compounds of the Examples were determined.
As a result, when the efficacy of […] and acetylcholine of the compounds prepared in the Examples was 100%, the inhibition rate (%) at a single concentration of 10 uM was evaluated and shown in Table 8.

CNCc1cn(S(=O)(=O)c2cccc(F)c2)c(-c2ccc(F)cc2F)c1OC.Cl [Example 8, 1-(5-(2,4-difluorophenyl)-1-((3-fluorophenyl)sulfonyl)-4-methoxy-1H-pyrrol-3-yl)-N-methylmethanamine hydrochloride]
% inhibitory activity (gastric damage area) [1]: 92.2%
MIC ([2]; strain 45 (HPKTCC B0004)): 75 µg/mL
MIC ([2]; strain 51 (HPKTCC B0006)): 75 µg/mL
MIC ([2]; strain 52 (HPKTCC B0007)): 75 µg/mL
MIC ([2]; strain 92-33-1 (HPKTCC B0182)): 75 µg/mL
MIC ([2]; strain 92-82-1 (HPKTCC B0233)): 75 µg/mL
MIC ([2]; strain 92-157 (HPKTCC B0152)): 75 µg/mL
MIC ([2]; strain 118 (HPKTCC B0017)): 150 µg/mL
MIC ([2]; strain 126 (HPKTCC B0020)): 150 µg/mL
MIC ([2]; strain 127 (HPKTCC B0021)): 75 µg/mL
MIC ([2]; strain 133 (HPKTCC B0023)): 37.5 µg/mL
MIC ([2]; strain 134 (HPKTCC B0024)): 75 µg/mL
MIC ([2]; strain 138 (HPKTCC B0026)): 75 µg/mL
MIC ([2]; strain 156 (HPKTCC B0035)): 150 µg/mL
MIC ([2]; strain 159 (HPKTCC B0037)): 150 µg/mL
MIC ([2]; strain 164 (HPKTCC B0040)): 75 µg/mL
MIC ([2]; strain 183 (HPKTCC B0047)): 150 µg/mL
MIC ([2]; strain 193 (HPKTCC B0051)): 75 µg/mL
MIC ([2]; strain 198 (HPKTCC B0055)): 75 µg/mL
MIC ([2]; strain 205 (HPKTCC B0058)): 75 µg/mL
MIC ([2]; strain 210 (HPKTCC B0061)): 75 µg/mL
MIC ([2]; strain 221 (HPKTCC B0068)): 75 µg/mL
MIC ([2]; strain 228 (HPKTCC B0071)): 75 µg/mL
MIC ([2]; strain 235 (HPKTCC B0074)): 75 µg/mL
MIC ([2]; strain 236 (HPKTCC B0075)): 75 µg/mL
MIC ([2]; strain 302 (HPKTCC B0088)): 75 µg/mL
MIC ([2]; strain 26695 (HPKTCC B0100)): 75 µg/mL
MIC ([2]; strain 26695 CHGKG (HPKTCC B3412)): 150 µg/mL
MIC ([2]; strain CH24 (HPKTCC B0508)): 75 µg/mL
MIC ([2]; strain CH94 (HPKTCC B0582)): 37.5 µg/mL
MIC ([2]; strain CH173 (HPKTCC B0494)): 75 µg/mL
MIC ([2]; strain CH175 (HPKTCC B0496)): 75 µg/mL
MIC ([2]; strain CH189 (HPKTCC B0498)): 75 µg/mL
MIC ([2]; strain CH192 (HPKTCC B0500)): 75 µg/mL
MIC ([2]; strain CH272 (HPKTCC B0516)): 75 µg/mL
MIC ([2]; strain CH369 (HPKTCC B0522)): 75 µg/mL
MIC ([2]; strain CH381 (HPKTCC B0524)): 75 µg/mL
MIC ([2]; strain CH498 (HPKTCC B0536)): 75 µg/mL
MIC ([2]; strain CH502 (HPKTCC B0537)): 75 µg/mL
MIC ([2]; strain CH523 (HPKTCC B0541)): 75 µg/mL
MIC ([2]; strain CH541 (HPKTCC B0548)): 75 µg/mL
MIC ([2]; strain CH588 (HPKTCC B0556)): 75 µg/mL
MIC ([2]; strain CH609 (HPKTCC B0558)): 75 µg/mL
MIC ([2]; strain CH612 (HPKTCC B0559)): 75 µg/mL
MIC ([2]; strain CH631 (HPKTCC B0560)): 75 µg/mL
MIC ([2]; strain CH635 (HPKTCC B0562)): 75 µg/mL
MIC ([2]; strain CH674 (HPKTCC B0564)): 75 µg/mL
MIC ([2]; strain CH1056 (HPKTCC B0487)): 75 µg/mL
MIC ([2]; strain CJH7 (HPKTCC B0606)): 75 µg/mL
MIC ([2]; strain CJH8 (HPKTCC B0608)): 37.5 µg/mL
MIC ([2]; strain CJH9 (HPKTCC B0610)): 75 µg/mL
MIC ([2]; strain CJH10 (HPKTCC B0587)): 75 µg/mL
MIC ([2]; strain CJH13 (HPKTCC B0589)): 75 µg/mL
MIC ([2]; strain CJH31 (HPKTCC B0594)): 75 µg/mL
MIC ([2]; strain CJH33 (HPKTCC B0595)): 75 µg/mL
MIC ([2]; strain CJH43 (HPKTCC B0596)): 75 µg/mL
MIC ([2]; strain CJH50 (HPKTCC B0599)): 75 µg/mL
MIC ([2]; strain G88001 (HPKTCC B0722)): 75 µg/mL
MIC ([2]; strain G88007 (HPKTCC B0725)): 75 µg/mL
MIC ([2]; strain J99 (HPKTCC B0748)): 75 µg/mL
MIC ([2]; strain SS1-P-4′ (HPKTCC B3392)): 37.5 µg/mL
IC50 ([3]; 8 concentrations 10 to 0.0006 uM, read-out: 50% inhibitory concentration (IC50) M1): 140 nM
inhibition at 10 µM ([3]; single concentration of 10 uM, read-out: inhibition rate (%) M1): 101%
